Laboratory results taken from patent publication US10441568B2, “Nitroxide radicals for the treatment of diseases of the respiratory tract” (priority 2015, dated 2019).

Columns and labels:
[1] = tested on: TGF-β1; test: TGF-β1 level in bleomycin pulmonary fibrosis model; type: in vivo, mice; settings: 3-CP 150 mg/kg daily intranasal, 14 days, FIG. 19
Procedure: (§1) Bronchoalveolar lavage (BAL) fluid (also referred to herein as “BALf”) and bronchial submucosal inflammation are characteristic features of asthma. Mice were euthanized with an overdose of 50 mg/kg pentobarbital and ice-cold phosphate buffer saline (PBS) (0.6 ml) was instilled into the lungs. BAL fluid was obtained by three aspirations via tracheal cannulation, centrifuged, and the supernatant collected and stored at −70° C. Cell pellets were re-suspended in PBS and 100 μl aliquots placed onto slides and centrifuged (200 g, 4° C., 10 minutes) in a cytospin machine. Induction of oxidative stress was evaluated using a 2′,7′-dichlorofluorescein fluorescence assay, and total IgE, IgG2a, panel of cytokines, transforming growth factors, collagen, protein nitration and lipid peroxidation were measured using commercial kits according to the manufacturer's recommendations. A Sircol™ collagen assay kit was obtained from Biocolor Life Sciences Assays, a protein nitration assay kit was obtained from Abcam, and other assay kits were obtained from PeproTech Asia. […]
The effect of 3-CP on bleomycin-induced inflammation was evaluated by determining lung resistance, total inflammatory cell count, and TGF-β1 levels, according to procedures described hereinabove.

[2] = Nitroxide concentration measurement by EPR in mouse blood and tissue; type: in vivo; settings: mice
Procedure: Electron paramagnetic resonance (EPR) spectroscopy was used to determine residual levels of nitroxide in mouse tissue. Blood samples or tissue samples were diluted with 0.5 ml phosphate buffer (40 mM, pH 7.4) or water, inserted into a flexible capillary placed in a quartz tube installed within the EPR spectrometer cavity and assayed for residual nitroxide. A similar procedure was used to determine the residual nitroxide in tissue homogenates of various organs, which were corrected for blood contamination spectrophotometrically by following the absorption of oxyhemoglobin at 400-600 nm. Measured EPR signals were compared to those of a nitroxide standard solution.
In order to determine total hydroxylamine and nitroxide concentrations, 2 mM K3Fe(CN)6 was added to samples in order to oxidize hydroxylamines to the respective nitroxide, and the nitroxide level was determined by EPR spectroscopy as described hereinabove.
Control and experimental groups contained 10 mice each. The effects of the nitroxides were investigated by feeding the mice ad libitum a diet of nitroxide-containing chow (1 weight percent) during both ovalbumin (OVA)-induced sensitization and challenging periods (days −2-19), during the sensitization period (days −2-11) or challenge period (days 13-19). Nitroxide-containing chow were prepared by dissolving 500 grams chow in a minimum volume of water containing 5 grams nitroxide and 5 grams commercial chicken soup powder, preparing the chow and drying it at 37° C. (animals were reluctant to eat nitroxide-containing chow until chicken soup powder was added).
3-CP was also administered using 3 daily intraperitoneal (IP) injections (200 μl, 0.15 M, ˜300 mg/kg) 0.5 hour prior to the challenge with OVA aerosol, or by nasal instillation (50 μl, 0.3 M, ˜150 mg/kg) twice a day 0.5 hour prior to the challenge with OVA aerosol and 6 hours later without exceeding its maximally tolerated dose, which has been previously established to be 300-500 mg/kg. Both 3-CP and TPL were non-toxic when administered orally or via IP injection to untreated OVA-challenged mice for 22 days.

[3] = tested on: IL-5; test: IL-5 level in OVA asthma model; type: in vivo, BALB/c mice; settings: for IL-5 level: lung tissue (table title)
Procedure: All experimental procedures were carried out in accordance with the NIH Guidelines for the Care and Use of Laboratory Animals. Specific pathogen-free (SPF) male BALB/c mice (6-7 weeks of age, 18-22 grams), routinely screened serologically for relevant respiratory pathogens, were maintained in an animal housing facility for 1 week before use and given access to food and water ad libitum. Animals were randomly assigned to the indicated experimental groups, and sensitized with two intraperitoneal (IP) injections (20 μg ovalbumin (OVA) emulsified in 2 mg aluminum hydroxide (an adjuvant) in 200 μl phosphate buffer saline (PBS), pH 7.4), on days 1 and 10.
After another week, the animals were challenged by exposure to ovalbumin (OVA) aerosol (1%, w/v, in PBS) for 30 minutes each day on days 17, 18 and 19, in order to elicit an inflammatory reaction in the lungs characterized by airway hyper-responsiveness (AHR), an influx of inflammatory cells (particularly eosinophils), and increased pulmonary levels of various cytokines and transforming growth factors, protein nitration and lipid peroxidation.
Bronchoalveolar lavage (BAL) fluid (also referred to herein as “BALf”) and bronchial submucosal inflammation are characteristic features of asthma. Mice were euthanized with an overdose of 50 mg/kg pentobarbital and ice-cold phosphate buffer saline (PBS) (0.6 ml) was instilled into the lungs. BAL fluid was obtained by three aspirations via tracheal cannulation, centrifuged, and the supernatant collected and stored at −70° C. Cell pellets were re-suspended in PBS and 100 μl aliquots placed onto slides and centrifuged (200 g, 4° C., 10 minutes) in a cytospin machine. Induction of oxidative stress was evaluated using a 2′,7′-dichlorofluorescein fluorescence assay, and total IgE, IgG2a, panel of cytokines, transforming growth factors, collagen, protein nitration and lipid peroxidation were measured using commercial kits according to the manufacturer's recommendations. A Sircol™ collagen assay kit was obtained from Biocolor Life Sciences Assays, a protein nitration assay kit was obtained from Abcam, and other assay kits were obtained from PeproTech Asia.
The efficacy of oral administration of 3-CP (1 weight percent in chow) during the sensitization period and/or challenge period was then compared to IP injection (˜300 mg/kg, 0.5 hour before the OVA challenge) or intranasal instillation (˜150 mg/kg, 0.5 hour before the OVA and 6 hours later) of 3-CP, as well as to dexamethasone treatment (1 mg/kg, 3 daily IP injections, 0.5 hour prior to the challenge with OVA aerosol).
In order to assess the effect of 3-CP on inflammatory signaling pathways, […] to procedures described hereinabove, upon oral, intranasal or IP administration of 3-CP.

[4] = tested on: mice with OVA-induced chronic asthma; test: Pulmonary collagen content, severe (chronic) asthma model; type: in vivo; settings: FIG. 16
Procedure: Bronchoalveolar lavage (BAL) fluid (also referred to herein as “BALf”) and bronchial submucosal inflammation are characteristic features of asthma. Mice were euthanized with an overdose of 50 mg/kg pentobarbital and ice-cold phosphate buffer saline (PBS) (0.6 ml) was instilled into the lungs. BAL fluid was obtained by three aspirations via tracheal cannulation, centrifuged, and the supernatant collected and stored at −70° C. Cell pellets were re-suspended in PBS and 100 μl aliquots placed onto slides and centrifuged (200 g, 4° C., 10 minutes) in a cytospin machine. Induction of oxidative stress was evaluated using a 2′,7′-dichlorofluorescein fluorescence assay, and total IgE, IgG2a, panel of cytokines, transforming growth factors, collagen, protein nitration and lipid peroxidation were measured using commercial kits according to the manufacturer's recommendations. […]
3-CP was administered orally (1 weight percent in chow) during the entire experiment, and dexamethasone (Dex) was administered via IP injection (1 mg/kg) one hour before each challenge. Inflammatory cell counts and pulmonary collagen content were then evaluated according to procedures described hereinabove, in order to assess effects on inflammation and remodeling, respectively.

[5] = tested on: bleomycin-induced pulmonary fibrosis; test: Collagen content in lung tissue, bleomycin pulmonary fibrosis model; type: in vivo, mice; settings: 3-CP 150 mg/kg daily intranasal, 14 days, FIG. 20
Procedure: as §1
The degree of fibrosis was evaluated by measuring collagen content in lung tissue.

[6] = nasal instillation (50 μL, 0.3 M), FIG. 2
[7] = oral administration (1 weight percent nitroxide in chow), FIG. 1
[8] = stated after the oral administration data

CC1(C)CC(C(N)=O)C(C)(C)N1[O] (stereo not drawn) [3-CP, 3-Carbamoyl-2,2,5,5-tetramethyl-pyrrolidin-1-oxyl]
effect on bleomycin-induced increase in TGF-β1 expression in lungs [1]: significantly reduced
residual concentration of the respective hydroxylamine compared with the nitroxide ([2]; data not shown): higher than those of the therapeutically active nitroxide free radical
absolute concentration in lung tissue relative to blood [2, 6]: about twice the concentration in the blood
half-life of reduction/clearance from blood and lung tissue [2, 6]: about 80 minutes
time course of residual concentration in blood and lung tissue [2, 6]: decreased exponentially with time
blood concentration, 3-CP compared with TPL [2, 7]: higher than TPL blood concentrations
residual concentration of nitroxide in blood [2, 7]: detectable levels
residual concentration in the lungs compared with other organs [2, 8]: significantly higher than in the heart, spleen, liver, kidney and brain
residual concentration in the lungs relative to that in the blood [2, 8]: about 65%
IL-5 level ([3]; OVA IP-C: 3-CP intraperitoneal during challenge): 2.08 ng/mg
IL-5 level ([3]; OVA oral-C: 3-CP oral during challenge): 2.40 ng/mg
IL-5 level ([3]; OVA oral-S&C: 3-CP oral during sensitization and challenge): 1.96 ng/mg
IL-5 level ([3]; OVA oral-S: 3-CP oral during sensitization): 3.16 ng/mg
effect on OVA-induced increase in the level of IL-5 ([3]; lung tissue, FIG. 7B and Table 1): inhibited
modulating IL-5 level, oral compared with IP 3-CP ([3]; oral administration vs IP injection): consistently more effective than IP injection of 3-CP
effect on increase in collagen content of the lung ([4]; 3-CP oral 1 weight percent in chow during entire experiment): completely reversed the increase in collagen content
reducing collagen content, 3-CP compared with dexamethasone ([4]; 3-CP oral, dexamethasone 1 mg/kg IP before each challenge): more effective than dexamethasone treatment at reducing collagen content
effect on bleomycin-induced pulmonary fibrosis, pulmonary collagen content [5]: significantly inhibited
